Holding throughout (type): in vivo
Test [1] deals with Amaranthus pa/meri (AMAPA). Kind of test: Pre-emergence herbicidal glasshouse test. The following applies: 250 g/ha, sprayed after one day cultivation, evaluated after 13 days. Here is the method: (§1) Seeds of a variety of test species are sown in standard soil in pots Amaranthus pa/meri (AMAPA), Amaranthus retoflexus (AMARE), Echinochloa crus-gali (ECHCG), Ipomoea hederacea (IPOHE), Setaria faberi (SETFA). After cultivation for one day (pre-emergence) or after 8 days cultivation (post-emergence) under controlled conditions in a glasshouse (at 24/16° C., day/night; 14 hours light; 65% humidity), the plants are sprayed with an aqueous spray solution derived from the formulation of the technical active ingredient in acetone/water (50:50) solution containing 0.5% Tween 20 (polyoxyethelyene sorbitan monolaurate, CAS RN 9005-64-5). Compounds are applied at 250 g/ha unless otherwise stated. The test plants are then grown in a glasshouse under controlled conditions in a glasshouse (at 24/16° C., day/night; 14 hours light; 65% humidity) and watered twice daily. After 13 days for pre and post-emergence, the test is evaluated for the percentage damage caused to the plant. The biological activities are shown in the following table on a five-point scale (5=81-100%; 4=61-80%; 3=41-60%; 2=21-40%; 1=0-20%).

For test [2], the system named is Echinochloa crus-gali (ECHCG). Kind of test: Pre-emergence herbicidal glasshouse test. Conditions: 250 g/ha, sprayed after one day cultivation, evaluated after 13 days. The method, then: as §1
Test [3] deals with Ipomoea hederacea (IPOHE). Kind of test: Pre-emergence herbicidal glasshouse test. The following applies: 250 g/ha, sprayed after one day cultivation, evaluated after 13 days. Here is the method: as §1
Test [4] relates to Amaranthus retoflexus (AMARE). Nature of the test: Pre-emergence herbicidal glasshouse test. Conditions: 250 g/ha, sprayed after one day cultivation, evaluated after 13 days. The method, then: as §1
Test [5] deals with Amaranthus pa/meri (AMAPA). Kind of test: Post-emergence herbicidal glasshouse test. The following applies: 250 g/ha, sprayed after 8 days cultivation, evaluated after 13 days. Here is the method:
as §1

Test [6] has as its system Echinochloa crus-gali (ECHCG). Kind of test: Post-emergence herbicidal glasshouse test. The following applies: 250 g/ha, sprayed after 8 days cultivation, evaluated after 13 days. Here is the method: as §1
Test [7] relates to Ipomoea hederacea (IPOHE). Nature of the test: Post-emergence herbicidal glasshouse test. Conditions: 250 g/ha, sprayed after 8 days cultivation, evaluated after 13 days. The method, then:
as §1

In test [8] the test system is Amaranthus retoflexus (AMARE). Nature of the test: Post-emergence herbicidal glasshouse test. Conditions: 250 g/ha, sprayed after 8 days cultivation, evaluated after 13 days. The method, then: as §1

Consider `COCCc1nc(C(F)(F)F)cn1Cc1ncc(Cl)cn1` [Compound 1.018], for which the “percentage damage caused to the plant, AMAPA” value in test [1] is reported as 4 (4=61-80%); in test [5] it was 2 (2=21-40%). The “percentage damage caused to the plant, ECHCG” value in test [2] and in test [6] was 1 (1=0-20%) throughout. In addition, the “percentage damage caused to the plant, IPOHE” value in test [3] is 4 (4=61-80%); in test [7] it was 3 (3=41-60%). The “percentage damage caused to the plant, AMARE” value is 5 (5=81-100%) in test [4] and 2 (2=21-40%) in test [8].
Regarding `CCCCCc1nc(C(F)(F)F)cn1Cc1ncc(C)cn1` [Compound 1.016], the entries for the “percentage damage caused to the plant, AMAPA” value in test [1] and in test [5] were 5 (5=81-100%) and 1 (1=0-20%), respectively. Moreover, the “percentage damage caused to the plant, ECHCG” value in test [2] and in test [6] was 1 (1=0-20%) in each case. Moreover, the “percentage damage caused to the plant, IPOHE” value in test [3] and in test [7] was 2 (2=21-40%) each time. Also, the “percentage damage caused to the plant, AMARE” value in test [4] is listed as 5 (5=81-100%); in test [8], 2 (2=21-40%).
In the case of `CCCCc1nc(C(F)F)cn1Cc1ncc(Cl)cn1` [Compound 1.053, 2-[[2-butyl-4-(difluoromethyl)imidazol-1-yl]methyl]-5-chloro-pyrimidine], the “percentage damage caused to the plant, AMAPA” value in test [1] and in test [5] was 1 (1=0-20%) in each case. The “percentage damage caused to the plant, ECHCG” value in test [2] and in test [6] was 1 (1=0-20%) each time. Moreover, the “percentage damage caused to the plant, IPOHE” value in test [3] and in test [7] was 1 (1=0-20%) in each case. Moreover, the “percentage damage caused to the plant, AMARE” value in test [4] and in test [8] was 1 (1=0-20%) each time.
`FC(F)(F)c1cn(Cc2ncc(Cl)cn2)c(CC2CCOCC2)n1` [Compound 1.075]: the “percentage damage caused to the plant, AMAPA” value in test [1] is 5 (5=81-100%); in test [5] it was 4 (4=61-80%). Moreover, the “percentage damage caused to the plant, ECHCG” value in test [2] and in test [6] was 4 (4=61-80%) in each case. The “percentage damage caused to the plant, IPOHE” value in test [3] is on record as 5 (5=81-100%); in test [7] it was 4 (4=61-80%). Moreover, the “percentage damage caused to the plant, AMARE” value in test [4] is recorded as 5 (5=81-100%); in test [8] it was 4 (4=61-80%).
Take `CON=CCCc1nc(C(F)(F)F)cn1Cc1ncc(Cl)cn1` (single isomer, unassigned) [Compound 1.007, 3-[1-[(5-chloropyrimidin-2-yl)methyl]-4-(trifluoromethyl)-imidazol-2-yl]-N-methoxy-propan-1-imine]: the “percentage damage caused to the plant, AMAPA” value is reported as 5 (5=81-100%) in test [1] and 4 (4=61-80%) in test [5]. Besides, the results for the “percentage damage caused to the plant, ECHCG” value in test [2] and in test [6] were 2 (2=21-40%) and 1 (1=0-20%), respectively. Further, the “percentage damage caused to the plant, IPOHE” value in test [3] is listed as 5 (5=81-100%); in test [7], 3 (3=41-60%). Moreover, the “percentage damage caused to the plant, AMARE” value in test [4] is recorded as 5 (5=81-100%); in test [8] it was 4 (4=61-80%).
Consider `FC(F)(F)c1cn(Cc2ncc(Cl)cn2)c(CCC=NOCC2CC2)n1` (single isomer, unassigned) [Compound 1.006], for which the “percentage damage caused to the plant, AMAPA” value in test [1] is recorded as 2 (2=21-40%); in test [5], 3 (3=41-60%). The “percentage damage caused to the plant, ECHCG” value in test [2] and in test [6] was 1 (1=0-20%) each time. Also, the “percentage damage caused to the plant, IPOHE” value in test [3] is given as 1 (1=0-20%); in test [7], 2 (2=21-40%). The “percentage damage caused to the plant, AMARE” value is 5 (5=81-100%) in test [4] and 3 (3=41-60%) in test [8].
As to `C#CCON=CCCc1nc(C(F)(F)F)cn1Cc1ncc(Cl)cn1` (single isomer, unassigned) [Compound 1.028], the “percentage damage caused to the plant, AMAPA” value in test [1] was 5 (5=81-100%); in test [5], 4 (4=61-80%). Moreover, the entries for the “percentage damage caused to the plant, ECHCG” value in test [2] and in test [6] were 1 (1=0-20%) and 2 (2=21-40%), respectively. Also, the results for the “percentage damage caused to the plant, IPOHE” value in test [3] and in test [7] were 4 (4=61-80%) and 2 (2=21-40%), respectively. In addition, the “percentage damage caused to the plant, AMARE” value in test [4] and in test [8] was 5 (5=81-100%) in each case.
As to `CCCCc1nc(C(F)(F)F)cn1Cc1ccc(Cl)cn1` [Compound 1.081], the “percentage damage caused to the plant, AMAPA” value is recorded as 2 (2=21-40%) in test [1] and 3 (3=41-60%) in test [5]. In addition, the “percentage damage caused to the plant, ECHCG” value in test [2] and in test [6] was 1 (1=0-20%) each time. The entries for the “percentage damage caused to the plant, IPOHE” value in test [3] and in test [7] were 1 (1=0-20%) and 2 (2=21-40%), respectively. Moreover, the “percentage damage caused to the plant, AMARE” value is on record as 2 (2=21-40%) in test [4] and 3 (3=41-60%) in test [8].
Take `FC(F)CCc1nc(C(F)(F)F)cn1Cc1ncc(Cl)cn1` [Compound 1.010, 5-chloro-2-[[2-(3,3-difluoropropyl)-4-(trifluoromethyl)-imidazol-1-yl]methyl]-pyrimidine]: the “percentage damage caused to the plant, AMAPA” value in test [1] is listed as 5 (5=81-100%); in test [5], 4 (4=61-80%). Further, the “percentage damage caused to the plant, ECHCG” value in test [2] and in test [6] was 4 (4=61-80%) throughout. The results for the “percentage damage caused to the plant, IPOHE” value in test [3] and in test [7] were 5 (5=81-100%) and 4 (4=61-80%), respectively. Moreover, the “percentage damage caused to the plant, AMARE” value in test [4] was 5 (5=81-100%); in test [8], 4 (4=61-80%).
Turning to `CCCCCc1nc(C(F)(F)F)cn1Cc1ncc(Cl)cn1` [Compound 1.019], the “percentage damage caused to the plant, AMAPA” value was 5 (5=81-100%) in test [1] and 2 (2=21-40%) in test [5]. Also, the “percentage damage caused to the plant, ECHCG” value in test [2] is 5 (5=81-100%); in test [6], 3 (3=41-60%). Further, the “percentage damage caused to the plant, IPOHE” value in test [3] and in test [7] was 1 (1=0-20%) in each case. In addition, the results for the “percentage damage caused to the plant, AMARE” value in test [4] and in test [8] were 5 (5=81-100%) and 2 (2=21-40%), respectively.
Turning to `FC(F)(F)c1cn(Cc2ncc(Cl)cn2)c(CC2CCOC2)n1` (stereo not shown) [Compound 1.074], the “percentage damage caused to the plant, AMAPA” value in test [1] was 5 (5=81-100%); in test [5] it was 4 (4=61-80%). Further, the “percentage damage caused to the plant, ECHCG” value in test [2] and in test [6] was 3 (3=41-60%) throughout. Besides, the “percentage damage caused to the plant, IPOHE” value in test [3] was 5 (5=81-100%); in test [7], 4 (4=61-80%). The figures for the “percentage damage caused to the plant, AMARE” value in test [4] and in test [8] were 5 (5=81-100%) and 4 (4=61-80%), respectively.
